Assays:
Format in all cases: cell-based
[1] = test system: human iPS cells (1383D2 strain) cell aggregates; test: Dissociation of human iPS cell aggregates by stirring with dissociation agent (micrographs, Vi-CELL viable cell density); conditions: culture medium with 10 μM Y-27632; WK11 stirred 17 min, EDTA 2.5 mM stirred 14 min; FIG. 2, FIG. 3
Method: The iPS cells maintenance cultured in (2) were seeded at a concentration of 1.5×10^5 cells/mL in a multi-well plate with StemFit (registered trademark) AK03N (Ajinomoto Co., Inc.) containing 10 μM Y-27632 added thereto, and cultured with stirring at a rotation speed of 70 rpm using an orbital shaker MaxQ™ 2000 CO2 Plus (Thermo Fisher Scientific) placed in a CO2 incubator at 37° C. One and three days after seeding, 50 vol % each of the medium was exchanged with AK02N, and the culture was continued until four days later to obtain cell aggregates.
To a culture medium containing the cell aggregates prepared in (3) were added Y-27632 (final concentration 10 μM) and WK11 pre-treated in (1), and the mixture was stirred for 17 min using an orbital shaker. Thereafter, the cell aggregates were sufficiently brought to a single-cell state by pipetting, and the viable cell density was measured using a live/dead cell autoanalyzer Vi-CELL XR (BECKMAN COULTER). […]
To a culture medium containing the cell aggregates prepared in (3) were added Y-27632 (final concentration 10 μM) and EDTA (final concentration 2.5 mM), and the mixture was stirred for 14 min using an orbital shaker. […] The viable cell density of the obtained cell suspension was measured using Vi-CELL XR.
The viable cell density in the culture medium was calculated from the Vi-CELL measured values in Example 1 (4), (5), and (6). […]

[2] = test system: human iPS cells (1383D2 strain); test: Suspension culture after passage: proliferation, viable cell density and aggregate formation; conditions: for proliferation in 4 days after passage (viable cell density): seeded 1.5×10^5 cells/mL, 4 days suspension culture, FIG. 6
Method: A new multi-well plate containing AK02N containing 10 μM Y-27632 was prepared, and the cells obtained in (4), (5), and (6) were respectively seeded at a density of 1.5×10^5 cells/mL. The cells were cultured in a CO2 incubator while stirring with an orbital shaker. One and three days after seeding, 50 vol % each of the medium was exchanged with AK02N, and the suspension culture was continued until four days later.
To accurately measure the number of viable cells, after four days of culture, under the same conditions, the following operation, including centrifugation, was performed. The entire volume of each culture medium was collected in a 15-mL conical tube, and the supernatant was removed by centrifugation (200 G, 5 min, 25° C.). Accutase™ (Nacalai Tesque Inc., 12679-54) (0.5 mL) was added and the mixture was heated at 37° C. for 15 min, after which the cell aggregates were sufficiently brought to a single-cell state by pipetting. The cells attached to the wall of the conical tube were sufficiently washed with AK02N, and the supernatant was removed by centrifugation (200 G, 5 min, 25° C.). The cells were resuspended in AK02N containing 10 μM Y-27632, and the viable cell density was measured using Vi-CELL XR.
The viable cell density in the culture medium was calculated from the Vi-CELL measured values in Example 1 (4), (5), and (6). A great difference in the viable cell density was not observed depending on the passage method. The viable cell density in the culture medium was calculated from the Vi-CELL measured values in Example 1 (7). The cells passaged using WK11 proliferated 3.4-fold in 4 days, whereas the cells passaged using EDTA without centrifugation removal proliferated 0.03-fold. Even when the centrifugation step was performed, the value was as low as 0.4-fold.

[3] = test system: human iPS cells (1383D2 strain), CD30 expression; test: Undifferentiated marker (CD30) positive rate by flow cytometry; conditions: FIG. 7
Method: The undifferentiated rate was evaluated for cells 4 days after suspension culture seeding, according to the following procedure.
1×10^5 cells were quantitatively collected, centrifuged (400 g, 5 min), and the supernatant was removed. 20 μL of PE Mouse Anti-Human CD30 (BD Pharmingen™) or PE Mouse IgG1, κ Isotype Control (BD Pharmingen™) diluted 5-fold with buffer was added and the cells were left standing for 20 min at 4° C. in the dark. After washing several times with buffer, the cells were analyzed using an Attune NXT Flow Cytometer (Thermo Fisher Scientific). […] However, measurement was not performed under conditions without a step of removing EDTA by centrifugation, because cells were not obtained.

O=C(O)CN(CCN(CC(=O)O)CC(=O)O)CC(=O)O [EDTA, ethylenediaminetetraacetic acid]
state of cell aggregates after stirring (micrograph) [1]: fragmented and the intercellular binding was weakened
proliferation in 4 days after passage (viable cell density) ([2]; centrifugation step performed to remove the agent): 0.4 fold
proliferation in 4 days after passage (viable cell density) ([2]; no centrifugation removal of the dissociation agent): 0.03 fold
proliferation of passaged cells (micrograph) ([2]; suspension cultured 4 days after passage, FIG. 4): proliferated hardly
aggregate formation of passaged cells (micrograph) ([2]; suspension cultured 4 days after passage, without a step of removing EDTA by centrifugation, FIG. 4): no aggregates were formed
undifferentiated marker (CD30) positive rate ([3]; Passage 1, 4 days after suspension culture seeding): maintained high values
undifferentiated marker (CD30) positive rate ([3]; Passage 2, 4 days after suspension culture seeding, EDTA only with centrifugation removal): maintained even after culture

— patent US20250346866A1, “CELL AGGREGATE DISSOCIATING AGENT” (AJINOMOTO CO., INC., priority 2023, published 2025)
